Measurements reported in patent publication US20060258571A1, “Antibacterial ester macrocycles” (priority 2002, published 2006).
Where a name gives a salt, the structure may show the parent alone.

Assays:
B. catarrhalis M3 = assay: Minimum inhibitory concentration (MIC), liquid dilution test; format: cell-based; details: Moraxella catarrhalis, minimal medium with 0.4% BH broth, 37° C., 18-24 h
Text: (§1) Determination of the Minimum Inhibitory Concentration (MIC):
(§2) The inhibitor concentration can in these cases be determined by standard microbiological methods (see, for example, The National Committee for Clinical Laboratory Standards. Methods for dilution antimicrobial susceptibility tests for bacteria that grow aerobically; approved standard-fifth edition. NCCLS document M7-A5 [ISBN 1-56238-394-9]. NCCLS, 940 West Valley Road, Suite 1400, Wayne, Pa. 19087-1898 USA, 2000). The MIC of the compounds of the invention is determined in the liquid dilution test on the 96-well microtiter plate scale. The bacterial microbes are cultivated in a minimal medium (18.5 mM Na2HPO4, 5.7 mM KH2PO4, 9.3 mM NH4Cl, 2.8 mM MgSO4, 17.1 mM NaCl, 0.033 μg/ml thiamine hydrochloride, 1.2 μg/ml nicotinic acid, 0.003 μg/ml biotin, 1% glucose, 25 μg/ml of each proteinogenic amino acid with the exception of phenylalanine; [H.-P. Kroll; unpublished]) with addition of 0.4% BH broth (test medium). In the case of Enterococcus faecalis ICB 27159, heat-inactivated fetal calf serum (FCS; GibcoBRL, Germany) is added to the test medium in a final concentration of 10%. Overnight cultures of the test microbes are diluted to an OD578 of 0.001 (to 0.01 in the case of Enterococci) in fresh test medium, and incubated 1:1 with dilutions of the test substances (1:2 dilution steps) in test medium (150 μl final volume). The cultures are incubated at 37° C. for 18-24 hours; Enterococci in the presence of 5% CO2.
(§3) The lowest substance concentration in each case at which bacterial growth was no longer visible is defined as the MIC. […] The compounds show a graded antibacterial effect against most of the test microbes.

S. aureus 133 = assay: as above; format: cell-based; details: minimal medium with 0.4% BH broth, 37° C., 18-24 h
Text: as §1, §2, §3

[1] = tested on: S. aureus 133 Translation; assay: In vitro transcription-translation with S. aureus extracts; format: biochemical; details: S30 extract, plasmid p1a template, firefly luciferase, 30° C. 60 min
Text: (§4) In Vitro Transcription-Translation with S. aureus Extracts
(§5) Construction of an S. aureus Luciferase Reporter Plasmid
(§6) A reporter plasmid which can be used in an in vitro transcription-translation assay for S. aureus is constructed by using the plasmid pBESTluc (Promega Corporation, USA). The E. coli tac promoter present in this plasmid in front of the firefly luciferase is replaced by the capA1 promoter with appropriate Shine-Dalgarno sequence from S. aureus. The primers CAPFor 5′-CGGCCAAGCTTACTCGGAT-[…] […]-3′ and CAPRev 5′-[…]-3′ are used for this. The primer CAPFor contains the capA1 promoter, the ribosome binding site and the 5′ region of the luciferase gene. After PCR using pBESTluc as template it is possible to isolate a PCR product which contains the firefly luciferase gene with the fused capA1 promoter. This is, after restriction with ClaI and HindIII, ligated into the vector pBESTluc which has likewise been digested with ClaI and HindIII. The resulting plasmid p1a is able to replicate in E. coli and be used as template in the S. aureus in vitro transcription-translation assay.
(§7) Preparation of S30 Extracts from S. aureus
(§8) Six liters of BHI medium are inoculated with a 250 ml overnight culture of an S. aureus strain and allowed to grow at 37° C. until the OD600 nm is 2-4. The cells are harvested by centrifugation and washed in 500 ml of cold buffer A (10 mM Tris acetate, pH 8.0, 14 mM Mg acetate, 1 mM DTT, 1 M KCl). After renewed centrifugation, the cells are washed in 250 ml of cold buffer A with 50 mM KCl, and the resulting pellets are frozen at −20° C. for 60 min. The pellets are thawed on ice in 30 to 60 min and taken up to a total volume of 99 ml in buffer B (10 mM Tris acetate, pH 8.0, 20 mM Mg acetate, 1 mM DTT, 50 mM KCl). 1.5 ml portions of lysostaphin (0.8 mg/ml) in buffer B are each introduced into 3 precooled centrifuge cups and each mixed with 33 ml of the cell suspension. The samples are incubated at 37° C., shaking occasionally, for 45 to 60 min, before 150 μl of a 0.5 M DTT solution are added. The lyzed cells are centrifuged at 30 000×g and 4° C. for 30 min. The cell pellet is taken up in buffer B and then centrifuged again under the same conditions, and the collected supernatants are combined. […]
(§9) Inhibition of protein biosynthesis of the compounds can be shown in an in vitro transcription-translation assay. […] The activity of the resulting luciferase can be detected by luminescence measurement. […]

[2] = tested on: E. coli MRE600 Translation; assay: In vitro transcription-translation with E. coli extracts; format: biochemical, Escherichia coli; details: S30 extract, pBESTLuc template, firefly luciferase, 30° C. 60 min
Protocol: In Vitro Transcription-Translation with E. coli Extracts
An S30 extract is prepared by harvesting logarithmically growing Escherichia coli MRE 600 (M. Müller; University Freiburg), washing and employing them as described for the in vitro transcription-translation assay (Müller, M. and Blobel, G. Proc Natl Acad Sci USA (1984) 81, pp. 7421-7425).
1 μl of cAMP (11.25 mg/ml) are additionally added per 50 μl of reaction mix to the reaction mix for the in vitro transcription-translation assay. The assay mixture amounts to 105 μl, with 5 μl of the substance to be tested being introduced in 5% strength DMSO. 1 μg/100 pt of mixture of the plasmid pBESTLuc (Promega, Germany) are used as transcription template. After incubation at 30° C. for 60 min, 50 pt of luciferin solution (20 mM tricine, 2.67 mM MgSO4, 0.1 mM EDTA, 33.3 mM DTT pH 7.8, 270 μM CoA, 470 μM luciferin, 530 μM ATP) are added, and the resulting bioluminescence is measured in a luminometer for 1 minute. The IC50 is indicated by the concentration of an inhibitor which leads to 50% inhibition of the translation of firefly luciferase.

S. aureus 25701 = assay: Minimum inhibitory concentration (MIC), liquid dilution test; format: cell-based; details: Staphylococcus aureus, minimal medium with 0.4% BH broth, 37° C., 18-24 h
Text: as §1, §2, §3

S. aureus RN4220 = assay: as above; format: cell-based; details: Staphylococcus aureus, minimal medium with 0.4% BH broth, 37° C., 18-24 h
Text: as §1, §2, §3

[3] = tested on: Enterococcus faecalis ICB 27159; assay: as above; format: cell-based; details: ICB27159, test medium with 10% heat-inactivated FCS, 5% CO2, 37° C., 18-24 h, read-out: MIC E. faecalis ICB 27159
Text: as §1, §2, §3

[4] = tested on: S. aureus RN4220 Translation; assay: In vitro transcription-translation with S. aureus extracts; format: biochemical; details: S30 extract, plasmid p1a template, firefly luciferase, 30° C. 60 min
Text: as §4, §5, §6, §7, §8, §9

Compound: CCOC(=O)[C@@H]1Cc2cc(ccc2O)-c2ccc(O)c(c2)C[C@H](N)C(=O)N[C@@H](C[C@@H](O)CN)C(=O)N1 [Example 2, Ethyl(8S,11S,14S)-14-amino-11-[(2R)-3-amino-2-hydroxypropyl]-5,17-dihydroxy-10,13-dioxo-9,12-diazatricyclo[14.3.1.1^2,6]henicosa-1(20),2(21),3,5,16,18-hexaene-8-carboxylate dihydrochloride]
- MIC (B. catarrhalis M3): 6.25 µM
- MIC (S. aureus 133; Staphylococcus aureus, 133): 0.78 µM
- IC50 [1]: 2400 to 4300 nM
- IC50 [2]: 200 nM

Compound: 2-Aminoethyl-(8S,11S,14S)-14-amino-11-[(2R)-3-amino-2-hydroxypropyl]-5,17-dihydroxy-9-methyl-10,13-dioxo-9,12-diazatricyclo[14.3.1.1^2,6]henicosa-1(20),2(21),3,5,16,18-hexaene-8-carboxylate trihydrochloride [Example 10]
- MIC (S. aureus 133): 3.1 µM
- IC50 [1]: 700 nM

Compound: COC(=O)[C@@H]1Cc2cc(ccc2O)-c2ccc(O)c(c2)C[C@H](N)C(=O)N[C@@H](C[C@@H](O)CN)C(=O)N1 [Example 1, Methyl(8S,11S,14S)-14-amino-11-[(2R)-3-amino-2-hydroxypropyl]-5,17-dihydroxy-10,13-dioxo-9,12-diazatricyclo[14.3.1.1^2,6]henicosa-1(20),2(21),3,5,16,18-hexaene-8-carboxylate dihydrochloride]
- MIC (S. aureus 25701): 12.5 µM
- MIC (B. catarrhalis M3): 1.56 µM
- MIC (S. aureus 133; Staphylococcus aureus, 133): 3.13 µM
- MIC (S. aureus RN4220): 0.4 µM
- MIC [3]: 1.56 µM
- IC50 [4]: 1700 nM
- IC50 [1]: 500 to 3000 nM
- IC50 [2]: 500 nM
